Measurements published in PubChem BioAssay (NCI).
Where “and” joins values, the source holds several entries; their conditions need not be identical. Identical values can stand only once.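 Growth conditions: 96-well plates. Treatment: test compound, 48 hours, 5 concentrations. Analysis: linear interpolation between bracketing concentrations; unreached endpoints set to highest concentration. GI50 marks 50% less growth. TGI: concentration producing complete growth inhibition.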

What was measured:
Assay in all cases: NCI anticancer screen, dose series, 48 h
A549 NSCLC = test system: A549 NSCLC
CAKI-1 renal = test system: CAKI-1 renal
HCT-116 colon = test system: HCT-116 colon
IGROV1 ovarian = test system: IGROV1 ovarian
MALME-3M melanoma = test system: MALME-3M melanoma
SK-MEL-5 melanoma = test system: SK-MEL-5 melanoma
SNB-19 CNS = test system: SNB-19 CNS
T-47D breast = test system: T-47D breast
K-562 leukemia = test system: K-562 leukemia
RPMI-8226 leukemia = test system: RPMI-8226 leukemia

Structure (SMILES)	GI50 (A549 NSCLC)	TGI (A549 NSCLC)	GI50 (CAKI-1 renal) [µM]	TGI (CAKI-1 renal) [µM]	GI50 (HCT-116 colon) [µM]	TGI (HCT-116 colon)	GI50 (IGROV1 ovarian)	TGI (IGROV1 ovarian)	GI50 (MALME-3M melanoma) [µM]	TGI (MALME-3M melanoma)	GI50 (SK-MEL-5 melanoma) [µM]	TGI (SK-MEL-5 melanoma)	GI50 (SNB-19 CNS) [µM]	TGI (SNB-19 CNS)	GI50 (T-47D breast) [µM]	TGI (T-47D breast) [µM]	TGI (K-562 leukemia)	TGI (RPMI-8226 leukemia)	GI50 (RPMI-8226 leukemia) [µM]	GI50 (K-562 leukemia) [µM]
NC(=NCCCCCCN=C(N)/N=C(\N)Nc1ccc(Cl)cc1)/N=C(\N)Nc1ccc(Cl)cc1	1.05 µM	5.3 µM	1.33	4.79	1.74	6.12 µM	1.28 µM	3.16 µM	1.1	3.28 µM	0.908	1.73 µM	1.46	5.97 µM	1.71	7.72	–	–	–	–
COC(=O)C1=NC(=S)NC(c2ccccc2)C1c1nc2ccccc2o1 (configuration not stated)	–	> 50 µM	–	> 50	–	> 50 µM	–	> 50 µM	–	> 50 µM	–	–	–	> 50 µM	–	–	> 50 µM	> 50 µM	–	–
COC(=O)c1c(C(=O)OC)c(-c2ccccc2)n(-c2ccccc2)c(=O)c1-c1ccccc1	–	> 100 µM	–	> 100	–	> 100 µM	–	> 100 µM	–	> 100 µM	–	> 100 µM	–	> 100 µM	–	–	> 100 µM	> 100 µM	–	–
Cc1ccc(NCCNCC(C)(C)O)c2c(=O)c3ccc(Cl)cc3sc12	1.64 µM	3.09 µM	–	–	1.3	2.66 µM	1.35 µM	2.96 µM	1.59	3.23 µM	1.58	2.95 µM	1.67	3.27 µM	–	–	–	–	–	–
Clc1ccc(C=Nc2ccc(-c3nc4ccccc4[nH]3)cc2)cc1	> 100 µM	> 100 µM	> 100	> 100	> 100	> 100 µM	> 100 µM	> 100 µM	> 100	> 100 µM	45	> 100 µM	55.6	> 100 µM	55.1	> 100	–	> 100 µM	> 100	–
COc1ccc(/C=C/C(=O)c2c(-c3ccccc3)nn(C)c(=O)c2N2CC2C)cc1 (configuration not stated)	–	> 100 µM	–	> 100	–	> 100 µM	–	> 100 µM	–	> 100 µM	–	> 100 µM	–	> 100 µM	–	–	> 100 µM	–	–	–
N#C/C(=C\c1ccc(O)cc1)C(N)=O	–	> 100 µM	–	> 100	–	> 100 µM	–	> 100 µM	–	> 100 µM	–	> 100 µM	–	> 100 µM	–	–	> 100 µM	> 100 µM	–	–
Cc1cc(NCCCCCCCNc2cc(C)nc3cc(N)ccc23)c2ccc(N)cc2n1	–	> 100 µM	–	> 100	–	> 100 µM	–	–	–	> 100 µM	–	> 100 µM	–	> 100 µM	–	–	26.1 µM	> 100 µM	–	–
O=C(N/C(=C\c1ccc([N+](=O)[O-])cc1)c1nc2ccccc2s1)c1ccccc1	–	> 100 µM	–	95.8	–	> 100 µM	–	> 100 µM	–	> 100 µM	–	63.5 µM	–	> 100 µM	–	–	59.2 µM	44.1 µM	–	–
O=P(CN1CCOCC1)(c1ccccc1)c1ccccc1	–	> 100 µM	–	> 100	–	> 100 µM	–	> 100 µM	–	> 100 µM	–	> 100 µM	–	> 100 µM	–	–	> 100 µM	> 100 µM	–	–
CCN(CC)CCOC(COc1cc(C)cc(C)c1)COc1cc(C)cc(C)c1	4.56 µM	16.9 µM	3.7	16	3.31	14.9 µM	–	–	1.88	3.86 µM	1.75	3.19 µM	2.3	7.36 µM	2.34	6.83	–	–	–	–
CCCN1C(=O)/C(=C/c2ccc(SC(F)(F)F)cc2)SC1=Nc1ccc(OC)cc1	8.87 µM	30.1 µM	2.63	12.5	6.29	17.5 µM	29.6 µM	> 50 µM	–	–	17.3	> 50 µM	17.4	> 50 µM	–	–	> 50 µM	> 50 µM	11.8	23.1
CC1[C@@]2(CCC(C)(C)O2)O[C@@H]2C=C3C4CCC5Cc6nc7c(nc6C[C@@]5(C)C4C[C@H](O)[C@@]3(C)[C@]12O)CC1CCC2C3=C[C@H]4O[C@@]5(O[C@@](C)(CO)C[C@@H]5O)C(C)[C@@]4(O)[C@]3(C)[C@@H](O)CC2[C@]1(C)C7 (some centres not stated)	0.0028 µM	0.711 µM	0.0195	0.66	0.0273	0.719 µM and 0.493 µM	0.00831 µM	0.59 µM	0.0101	–	0.0165	0.37 µM and 0.0841 µM	0.041	0.808 µM and 0.82 µM	–	–	0.44 µM and 0.445 µM	0.032 µM	–	0.0103
COc1cc(C(=O)c2cnc(-c3c[nH]c4cccc(C)c34)[nH]2)cc(OC)c1OC	0.0109 µM	> 100 µM	–	> 100	0.00346	11.1 µM	0.00842 µM and 0.0168 µM	> 100 µM	11.4	> 100 µM	0.00365	0.0221 µM and 0.0366 µM	0.00505	> 100 µM	–	–	17.4 µM	19.8 µM	0.0399	0.00363
C/C=C/C=C/c1cc2cc3c(c(O)c2c(=O)[nH]1)C1(CC3)C(O)=c2c(=O)c3c(=O)cc(OC)c(=O)c=3c(=O)c2=C1O (configuration not stated)	0.183 µM and 1.4 µM	4.69 µM and 13.6 µM	–	–	–	–	–	10.6 µM and 15.3 µM	–	2.19 µM and 12.9 µM	–	–	–	14.5 µM and 13.9 µM	–	–	> 38.4 µM	0.678 µM and 2.2 µM	–	–
CCCCNc1ncnc2c1cnn2-c1ccccc1	5.29 µM	> 92.8 µM	2.09	> 40.8	1.32	> 100 µM	2.22 µM	> 100 µM	6.18	> 72.5 µM	1.19	11.1 µM	8.69	> 100 µM	3.71	52.8	–	> 28.3 µM	3.76	–
COC(=O)CC1(O)C(=O)OCc2c1cc1n(c2=O)Cc2c-1nc1ccccc1c2OC (configuration not stated)	–	> 100 µM	–	4.62	–	> 100 µM	–	> 74.3 µM	–	> 100 µM	–	2.74 µM	–	66.2 µM	–	–	> 100 µM	23.2 µM	–	–
CCOc1ccc(NC(=O)CC2SC(=Nc3ccc(C)cc3)NC2=O)cc1 (configuration not stated)	–	> 100 µM	–	–	–	> 100 µM	–	> 100 µM	–	> 100 µM	–	> 100 µM	–	> 100 µM	–	–	–	–	–	–
CC1NOC(=O)C1N=Nc1cccc(Cl)c1 (configuration not stated)	–	> 100 µM	–	> 100	–	> 100 µM	–	> 100 µM	–	> 100 µM	–	> 100 µM	–	> 100 µM	–	–	> 100 µM	–	–	–
